Source: PubChem BioAssay (NCI)
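All cell lines were grown in 96-well plates and treated with compound for 48 hours. TGI: total growth inhibition.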

Experiments:
Experiment in all cases: DTP human tumour cell line panel, 48 h
[1] = system: EKVX NSCLC
[2] = system: UACC-62 melanoma
[3] = system: A549 NSCLC
[4] = system: SN12C renal
[5] = system: HOP-92 NSCLC
[6] = system: NCI-H522 lung
[7] = system: SR leukemia
[8] = system: HCT-116 colon
[9] = system: MDA-MB-435
[10] = system: MDA-MB-231 breast
[11] = system: ACHN renal
[12] = system: SNB-75 CNS
[13] = system: RXF 393 renal
[14] = system: HOP-62 NSCLC
[15] = system: SF-295 CNS
[16] = system: SK-MEL-5 melanoma
[17] = system: DU-145 prostate
[18] = system: IGROV1 ovarian
[19] = system: T-47D breast
[20] = system: M14 melanoma
[21] = system: U251 CNS
[22] = system: HCC-2998 colon
[23] = system: OVCAR-3 ovarian
[24] = system: K-562 leukemia
[25] = system: NCI-H460 lung
[26] = system: MCF7 breast
[27] = system: BT-549 breast
[28] = system: NCI-H23 lung
[29] = system: SF-268 CNS
[30] = system: MALME-3M melanoma
[31] = system: RPMI-8226 leukemia
[32] = system: COLO 205 colon
[33] = system: OVCAR-5 ovarian
[34] = system: UO-31 renal
[35] = system: OVCAR-8 ovarian
[36] = system: PC-3 prostate
[37] = system: LOX IMVI melanoma
[38] = system: 786-0 renal
[39] = system: HT29 colon
[40] = system: SNB-19 CNS
[41] = system: UACC-257 melanoma
[42] = system: KM12 colon
[43] = system: MDA-N
[44] = system: SK-MEL-2 melanoma
[45] = system: MOLT-4 leukemia
[46] = system: TK-10 renal
[47] = system: SK-MEL-28 melanoma
[48] = system: SW-620 colon
[49] = system: A498 renal
[50] = system: OVCAR-4 ovarian
[51] = system: CAKI-1 renal
[52] = system: NCI-H226 lung
[53] = system: NCI/ADR-RES ovarian
[54] = system: HCT-15 colon
[55] = system: SK-OV-3 ovarian
[56] = system: SF-539 CNS
[57] = system: CCRF-CEM leukemia

Compound `O=C1Nc2ccc(Cl)cc2C(=O)N2CCC[C@@H]12` has a TGI [1] greater than 100 µM, a TGI [2] greater than 100 µM and a TGI [3] greater than 100 µM. The TGI [4] was greater than 100 µM, the TGI [5] was greater than 100 µM and the TGI [6] was greater than 100 µM. It also gave a TGI [7] greater than 100 µM, a TGI [8] greater than 100 µM and a TGI [9] greater than 100 µM. The TGI [10] was greater than 100 µM, the TGI [11] was greater than 100 µM and the TGI [12] was greater than 100 µM. For the same compound, the TGI [13] was greater than 100 µM, the TGI [14] was greater than 100 µM and the TGI [15] was greater than 100 µM. For the same compound, the TGI [16] was greater than 100 µM, the TGI [17] was greater than 100 µM and the TGI [18] was greater than 100 µM. The TGI [19] was greater than 100 µM, the TGI [20] was greater than 100 µM and the TGI [21] was greater than 100 µM. It also gave a TGI [22] greater than 100 µM, a TGI [23] greater than 100 µM and a TGI [24] greater than 100 µM. It also gave a TGI [25] greater than 100 µM, a TGI [26] greater than 100 µM and a TGI [27] greater than 100 µM. It also gave a TGI [28] greater than 100 µM, a TGI [29] greater than 100 µM and a TGI [30] greater than 100 µM. It also gave a TGI [31] greater than 100 µM, a TGI [32] greater than 100 µM and a TGI [33] greater than 100 µM. The TGI [34] was greater than 100 µM, the TGI [35] was greater than 100 µM and the TGI [36] was greater than 100 µM. It also gave a TGI [37] greater than 100 µM, a TGI [38] greater than 100 µM and a TGI [39] greater than 100 µM. It also gave a TGI [40] greater than 100 µM, a TGI [41] greater than 100 µM and a TGI [42] greater than 100 µM. The TGI [43] was greater than 100 µM, the TGI [44] was greater than 100 µM and the TGI [45] was greater than 100 µM. The TGI [46] was greater than 100 µM, the TGI [47] was greater than 100 µM and the TGI [48] was greater than 100 µM. It also gave a TGI [49] greater than 100 µM, a TGI [50] greater than 100 µM and a TGI [51] greater than 100 µM. For the same compound, the TGI [52] was greater than 100 µM, the TGI [53] was greater than 100 µM and the TGI [54] was greater than 100 µM. The TGI [55] was greater than 100 µM.

`CCOc1ccccc1N1CSc2nnc(-c3ccccc3)n2C1` showed a TGI [2] greater than 100 µM, a TGI [3] greater than 100 µM and a TGI [4] greater than 100 µM. It also gave a TGI [5] greater than 100 µM, a TGI [6] greater than 100 µM and a TGI [56] greater than 100 µM. For the same compound, the TGI [7] was greater than 100 µM, the TGI [8] was greater than 100 µM and the TGI [9] was greater than 100 µM. The TGI [10] was greater than 100 µM, the TGI [11] was greater than 100 µM and the TGI [13] was greater than 100 µM. For the same compound, the TGI [14] was greater than 100 µM, the TGI [15] was greater than 100 µM and the TGI [16] was greater than 100 µM. It also gave a TGI [17] greater than 100 µM, a TGI [18] greater than 100 µM and a TGI [19] greater than 100 µM. It also gave a TGI [20] greater than 100 µM, a TGI [21] greater than 100 µM and a TGI [22] greater than 100 µM. The TGI [23] was greater than 100 µM, the TGI [24] was greater than 100 µM and the TGI [25] was greater than 100 µM. It also gave a TGI [26] greater than 100 µM, a TGI [27] greater than 100 µM and a TGI [28] greater than 100 µM. It also gave a TGI [29] greater than 100 µM, a TGI [30] greater than 100 µM and a TGI [31] greater than 100 µM. It also gave a TGI [32] greater than 100 µM, a TGI [33] greater than 100 µM and a TGI [34] greater than 100 µM. It also gave a TGI [35] greater than 100 µM, a TGI [36] greater than 100 µM and a TGI [38] greater than 100 µM. The TGI [39] was greater than 100 µM, the TGI [41] was greater than 100 µM and the TGI [42] was greater than 100 µM. The TGI [43] was greater than 100 µM, the TGI [44] was greater than 100 µM and the TGI [45] was greater than 100 µM. The TGI [46] was greater than 100 µM, the TGI [47] was greater than 100 µM and the TGI [48] was greater than 100 µM. It also gave a TGI [49] greater than 100 µM, a TGI [50] greater than 100 µM and a TGI [57] of 49.9 µM. It also gave a TGI [51] greater than 100 µM, a TGI [52] greater than 100 µM and a TGI [53] greater than 100 µM. The TGI [54] was greater than 100 µM and the TGI [55] was greater than 100 µM.

`COc1ccc2c(c1)OCC1Cc3cc4c(cc3OC21)OCO4` (stereo not given) showed a TGI [1] greater than 100 µM, a TGI [2] greater than 100 µM and a TGI [3] greater than 100 µM. The TGI [4] was greater than 100 µM, the TGI [5] was greater than 100 µM and the TGI [6] was greater than 100 µM. The TGI [56] was greater than 100 µM, the TGI [7] was greater than 100 µM and the TGI [8] was greater than 100 µM. For the same compound, the TGI [9] was 34.7 µM, the TGI [10] was greater than 100 µM and the TGI [11] was greater than 100 µM. The TGI [14] was greater than 100 µM, the TGI [15] was greater than 100 µM and the TGI [16] was 57.2 µM. The TGI [17] was greater than 100 µM, the TGI [18] was greater than 100 µM and the TGI [19] was greater than 100 µM. It also gave a TGI [20] greater than 100 µM, a TGI [21] greater than 100 µM and a TGI [22] greater than 100 µM. For the same compound, the TGI [23] was greater than 100 µM, the TGI [24] was greater than 100 µM and the TGI [26] was greater than 100 µM. For the same compound, the TGI [27] was greater than 100 µM, the TGI [28] was greater than 100 µM and the TGI [29] was greater than 100 µM. The TGI [30] was greater than 100 µM, the TGI [31] was greater than 100 µM and the TGI [32] was greater than 100 µM. The TGI [33] was greater than 100 µM, the TGI [34] was greater than 100 µM and the TGI [35] was greater than 100 µM. It also gave a TGI [36] greater than 100 µM, a TGI [37] of 52.4 µM and a TGI [38] greater than 100 µM. It also gave a TGI [39] greater than 100 µM, a TGI [40] greater than 100 µM and a TGI [41] greater than 100 µM. For the same compound, the TGI [42] was greater than 100 µM, the TGI [43] was 13.8 µM and the TGI [44] was 86.9 µM. The TGI [45] was greater than 100 µM, the TGI [46] was 81.1 µM and the TGI [48] was greater than 100 µM. The TGI [49] was greater than 100 µM, the TGI [57] was greater than 100 µM and the TGI [51] was greater than 100 µM. The TGI [52] was greater than 100 µM, the TGI [53] was greater than 100 µM and the TGI [54] was greater than 100 µM. It also gave a TGI [55] greater than 100 µM.
